{"source": "paper PMC6681416", "about": "“Novel Derivatives of Deoxycholic Acid Bearing Linear Aliphatic Diamine and Aminoalcohol Moieties and their Cyclic Analogs at the C3 Position: Synthesis and Evaluation of Their In Vitro Antitumor Potential” (Molecules, 2019)", "key": {"HuTu-80 cells [1]": {"test_system": "HuTu-80 cells", "test": "Autophagy detection (MDC staining)", "assay_type": "cell-based, human", "conditions": "8 µM, 24 h, versus control", "from_the_text": "It is known that bile acids can induce cell death independently of apoptosis by activation of autophagy. Autophagy is a regulated lysosome-dependent pathway involved in the degradation of damaged and obsolete intracellular components. During autophagy, these components are isolated by a bilayer membrane resulting in autophagosome formation. Autophagosomes than fuse with lysosomes that leads to enzymatic degradation of their contents. During prolonged and strong stress, cells can autophagocytize up to a half of their cytoplasm that leads to a collapse of cell functions and, as a result, cell death. Monodansylcadaverin (MDC) is an autofluorescent amine that specifically accumulates within autophagic vacuoles and, therefore, can be used as a marker of autophagy.\nHuTu-80 cells were seeded in 6-well plates at a density of 5 × 10^5 cells per well and incubated for 24 h under standard conditions. Then the cells were treated by compound 9 at 8 µM for 24 h, collected by trypsinization, washed with PBS, suspended with 50 µM of MDC at 37 °C for 15 min and analyzed using NovoCyte Flow Cytometer (ACEA Biosciences Inc.). In order to evaluate the type of autophagy (cytoprotective or cytodestructive), HuTu-80 cells were seeded in 96-well plate at a density of 5 × 10^3 cells/well for 24 h followed by co-treatment with compound 9 at 8 µM and chloroquine, an autophagy inhibitor, at 50 µM for 24 h. […]"}, "HuTu-80 cells [2]": {"test_system": "HuTu-80 cells", "test": "Cell cycle assay (PI, flow cytometry)", "assay_type": "cell-based, human", "conditions": "8 µM", "method": "To determine the effect of compound 9 on the cell cycle, HuTu-80 cells were seeded in 6-well plates at a density of 5 × 10^5 cells/well for 24 h. After incubation, cells were treated with compound 9 at 8 µM for 6, 18 or 24 h. Thereafter, cells were collected by trypsinization, washed with cold PBS and fixed in 70% ice-cold ethanol for 30 min at 4 °C. Fixed cells were pelleted, stained with PI (1 mg/mL) for 15 min at 37 °C in the dark and analyzed using NovoCyte Flow Cytometer (ACEA Biosciences Inc.). Ten thousand events were recorded for each sample."}, "RAW264.7 macrophages": {"test_system": "RAW264.7 macrophages", "test": "MTT cytotoxicity assay, RAW264.7", "assay_type": "cell-based, murine", "from_the_text": "(§1) According to our previous data and data published by other research groups, chemical transformations of bile acids can greatly improve their antitumor potential. Thus, as the first step of evaluation of the biological activities of our novel DCA derivatives we assessed their effects on tumor cell viability. The cytotoxicity of the compounds was investigated with respect to a panel of cultured cell lines, including human duodenal HuTu-80, hepatocellular HepG2, cervical KB-3-1 and lung A549 carcinomas as well as murine macrophage RAW264.7 and non-transformed human fibroblasts hFF3 by MTT assay.\n(§2) Human duodenal carcinoma HuTu-80 cells, human hepatocellular carcinoma HepG2 cells, human cervical carcinoma KB-3-1 cells, human lung carcinoma A549 cells were obtained from the Russian Cell Culture Collection (Institute of Cytology, RAS, St. Petersburg, Russia). Non-transformed human fibroblasts hFF3 were kindly provided by Dr. Olga Koval (Institute of Chemical Biology and Fundamental Medicine, SB RAS, Novosibirsk, Russia). RAW264.7 macrophages were kindly provided by Prof. Dr. Dmitry Kuprash (Engelhardt Institute of Molecular Biology, RAS, Moscow, Russia). The cells were cultured in DMEM (Sigma-Aldrich Inc., St. Louis, MO, USA) supplemented with 10% (v/v) heat-inactivated fetal bovine serum (FBS) (BioloT, St. Petersburg, Russia), 100 U/mL penicillin (ICN Biomedicals Inc., Costa Mesa, CA, USA), 100 µg/mL streptomycin and 0.25 µg/mL amphotericin; additionally, in the case of RAW264.7 cells, concentration of glucose in the medium was increased up to 4.5 mg/mL. The cells were incubated at 37 °C in 5% CO2 and 95% air (hereafter referred to as standard conditions). DCA derivatives were dissolved in DMSO to yield stock solutions of 10 mmol/L and stored at −20 °C prior to use.\nCells were seeded in triplicate in 96-well plates at a density of 5 × 10^3 (HuTu-80, HepG2, KB-3-1, hFF3), 10^4 (A549) or 5 × 10^4 (RAW264.7) cells per well. Cells were incubated under standard conditions for 24 h and then they were treated with varying doses of investigated derivatives for subsequent 24 h. Then 10 µL of MTT solution (5 mg/mL) were added to each wells and cells were incubated for an additional 2 h under standard conditions. The crystals of formazan forming within live cells were solubilized with DMSO and the absorbance was measured in a Multiscan RC plate reader (Thermo LabSystems, Helsinki, Finland) at a test and reference wavelengths of 570 nm and 620 nm, respectively. […] To perform SAR analysis, hierarchical clustering of compounds based on their IC50 values was fulfilled with Euclidean distance by using the Morpheus tool (https://software.broadinstitute.org/morpheus/), a platform designed for visualization and analysis of data in a matrix format. Heatmap, containing compounds’ SI values, were constructed by using the Excel 2010 software (Microsoft, Redmond, WA, USA). In order to reveal whether ROS participate in the induction of cell death by compound 9, HuTu-80 cells cultured in 96-well plate were pretreated by NAC at 2 mM for 1 h. Thereafter, the medium was replaced by fresh medium with compound 9 at 8 µM and the cells were incubated with subsequent 24 h under standard conditions. After this time period, the curves of cytotoxicity of compound 9 in the presence or absence of NAC were compared."}, "[3]": {"test_system": "NO synthesis by IFNγ-activated RAW264.7 cells", "test": "Inhibition of NO production by stimulated macrophages (Griess)", "assay_type": "cell-based, murine", "conditions": "Mus musculus, RAW264.7, 24 h, read-out: IC50NO", "method": "RAW264.7 cells were seeded in triplicate in 96-well plates at a density of 5 × 10^4 cells/well and incubated under standard conditions for 24 h. The cells were treated with 20 ng/mL of murine recombinant IFNγ (GIBCO, Gaithersburg, MD, USA), with or without (control) compounds at various concentrations for 24 h. The level of NO production was evaluated by determining the nitrite concentration in culture medium with a Griess Reagent System (Promega, Madison, WI, USA). The IC50^NO value was calculated as the derivative concentration required to decrease NO production to 50% of the non-treated control."}, "[4]": {"test_system": "non-transformed human fibroblasts hFF3", "test": "MTT cytotoxicity assay, hFF3", "assay_type": "cell-based", "conditions": "HFF-3, 24 h, read-out: IC50 hFF3 (fibroblast)", "from_the_text": "as §1\nas §2, with “DCA derivatives were dissolved in DMSO to yield stock solutions of 10 mmol/L and stored at −20 °C prior to use.” left out\nCells were seeded in triplicate in 96-well plates at a density of 5 × 10^3 (HuTu-80, HepG2, KB-3-1, hFF3), 10^4 (A549) or 5 × 10^4 (RAW264.7) cells per well. […] The crystals of formazan forming within live cells were solubilized with DMSO and the absorbance was measured in a Multiscan RC plate reader (Thermo LabSystems, Helsinki, Finland) at a test and reference wavelengths of 570 nm and 620 nm, respectively. […]"}, "[5]": {"test_system": "panel of cultured cell lines (HuTu-80, HepG2, KB-3-1, A549, RAW264.7, hFF3)", "test": "MTT cytotoxicity, range over the panel of tested cell lines", "assay_type": "cell-based", "conditions": "24 h, summary of Table 1 (for 2–10 partly from ref [21])", "from_the_text": "as §1\nCells were seeded in triplicate in 96-well plates at a density of 5 × 10^3 (HuTu-80, HepG2, KB-3-1, hFF3), 10^4 (A549) or 5 × 10^4 (RAW264.7) cells per well. Cells were incubated under standard conditions for 24 h and then they were treated with varying doses of investigated derivatives for subsequent 24 h. Then 10 µL of MTT solution (5 mg/mL) were added to each wells and cells were incubated for an additional 2 h under standard conditions. The crystals of formazan forming within live cells were solubilized with DMSO and the absorbance was measured in a Multiscan RC plate reader (Thermo LabSystems, Helsinki, Finland) at a test and reference wavelengths of 570 nm and 620 nm, respectively. […]"}}}
{"compound": "COC(=O)CC[C@@H](C)[C@H]1CC[C@H]2[C@@H]3CC[C@@H]4CC(O)(CNCCCO)CC[C@]4(C)[C@H]3CC(=O)[C@]12C", "note": "(stereo partly drawn) [Compound 9, Methyl 3-hydroxy-3-((3-hydroxypropylamino)methyl)-12-oxo-5β-cholan-24-oate]", "values": [{"measurement": "intensity of MDC-associated fluorescence", "setting": "HuTu-80 cells [1]", "value": "significantly higher than in control"}, {"measurement": "subG1 cell population", "setting": "HuTu-80 cells [2]; 6 h", "value": 7.4, "unit": "%"}, {"measurement": "subG1 cell population", "setting": "HuTu-80 cells [2]; 18 h", "value": 30.0, "unit": "%"}, {"measurement": "subG1 cell population", "setting": "HuTu-80 cells [2]; 24 h", "value": 41.1, "unit": "%"}, {"measurement": "IC50", "setting": "RAW264.7 macrophages; Mus musculus, RAW264.7, MTT, 24 h, read-out: IC50 RAW264.7 (macrophage)", "value": "19.3 ± 3.7", "unit": "µM"}, {"measurement": "Selectivity index RAW264", "setting": "RAW264.7 macrophages; ratio IC50 hFF3 / IC50 RAW264.7", "value": 1.7}, {"measurement": "IC50", "setting": "[3]", "value": "> 10", "unit": "µM"}, {"measurement": "IC50", "setting": "[4]", "value": "33.3 ± 1.2", "unit": "µM"}, {"measurement": "IC50", "setting": "[5]", "value": "4 to 33.3", "unit": "µM"}]}
